Data reported in patent US11382328B2, “Rapid drug discovery methods for pathogen inactivation” (priority 2019, dated 2022).

Test system: E. coli strain W3110
Assay: Synergy assays: Biolog chemical sensitivity panels with Group IB metal, coefficient of drug interaction (CDI) from relative growth
Assay type: cell-based
Settings: for CDI (coefficient of drug interaction), gold + biocide: Gold (μM); for CDI (coefficient of drug interaction), copper mixed with biocide: Copper (mM) section
[1] = Copper (mM), 1st of 3 copper concentrations (head line not shown), biocide concentration 3 of 4, E. coli
[2] = Copper (mM), 1st of 3 copper concentrations (head line not shown), biocide concentration 4 of 4, E. coli
[3] = Copper (mM), 2nd of 3 copper concentrations (head line not shown), biocide concentration 3 of 4, E. coli
[4] = Copper (mM), 2nd of 3 copper concentrations (head line not shown), biocide concentration 4 of 4, E. coli
[5] = Copper (mM), 3rd of 3 copper concentrations (head line not shown), biocide concentration 3 of 4, E. coli
[6] = Copper (mM), 3rd of 3 copper concentrations (head line not shown), biocide concentration 4 of 4, E. coli
[7] = first of 3 gold concentrations, biocide concentration 3 of 4
[8] = first of 3 gold concentrations, biocide concentration 4 of 4
[9] = second of 3 gold concentrations, biocide concentration 3 of 4
[10] = second of 3 gold concentrations, biocide concentration 4 of 4
[11] = third of 3 gold concentrations, biocide concentration 3 of 4
[12] = third of 3 gold concentrations, biocide concentration 4 of 4
[13] = Silver 0.5 μM, biocide concentration 2 of 4
[14] = Silver 0.5 μM, biocide concentration 3 of 4
[15] = Silver 0.5 μM, biocide concentration 4 of 4
[16] = Silver 1.0 μM, biocide concentration 2 of 4
[17] = Silver 1.0 μM, biocide concentration 3 of 4
[18] = Silver 1.0 μM, biocide concentration 4 of 4
[19] = Silver 5.0 μM, biocide concentration 3 of 4
[20] = Silver 5.0 μM, biocide concentration 4 of 4
[21] = Gold section of Table 5, first of three gold concentrations (μM, value not given), biocide concentration 3 of 4
[22] = Gold section of Table 5, first of three gold concentrations (μM, value not given), biocide concentration 4 of 4
[23] = Gold section of Table 5, second of three gold concentrations (μM, value not given), biocide concentration 3 of 4
[24] = Gold section of Table 5, second of three gold concentrations (μM, value not given), biocide concentration 4 of 4
[25] = Gold section of Table 5, third of three gold concentrations (μM, value not given), biocide concentration 3 of 4
[26] = Gold section of Table 5, third of three gold concentrations (μM, value not given), biocide concentration 4 of 4

Compound	CDI (coefficient of drug interaction) [1]	CDI (coefficient of drug interaction) [2]	CDI (coefficient of drug interaction) [3]	CDI (coefficient of drug interaction) [4]	CDI (coefficient of drug interaction) [5]	CDI (coefficient of drug interaction) [6]	CDI (coefficient of drug interaction), gold + biocide [7]	CDI (coefficient of drug interaction), gold + biocide [8]	CDI (coefficient of drug interaction), gold + biocide [9]	CDI (coefficient of drug interaction), gold + biocide [10]	CDI (coefficient of drug interaction), gold + biocide [11]	CDI (coefficient of drug interaction), gold + biocide [12]	CDI [13]	CDI [14]	CDI [15]	CDI [16]	CDI [17]	CDI [18]	CDI [19]	CDI [20]	other results
CC1=C(C(=O)Nc2ccccc2)S(=O)(=O)CCO1 [Oxycarboxin]	Tox	Tox	Tox	Tox	Tox	Tox	Tox	Tox	Tox	Tox	Tox	Tox	Tox	Tox	Tox	Tox	Tox	Tox	Tox	Tox	CDI (coefficient of drug interaction), gold + biocide (first of 3 gold concentrations, biocide concentration 2 of 4): Tox; CDI (coefficient of drug interaction), gold + biocide (second of 3 gold concentrations, biocide concentration 2 of 4): Tox; CDI (coefficient of drug interaction), gold + biocide (third of 3 gold concentrations, biocide concentration 2 of 4): Tox; CDI (Silver 5.0 μM, biocide concentration 2 of 4): Tox
O=S(=O)(F)Cc1ccccc1 [PMSF]	0.62	0.71	0.37	0.46	0.34	0.38							0.92	1.10	0.35	1.10	1.06	0.55	1.25	0.60	CDI (coefficient of drug interaction) (Copper (mM), 1st of 3 copper concentrations (head line not shown), biocide concentration 1 of 4, E. coli): 0.76; CDI (coefficient of drug interaction) (Copper (mM), 1st of 3 copper concentrations (head line not shown), biocide concentration 2 of 4, E. coli): 0.71; CDI (coefficient of drug interaction) (Copper (mM), 2nd of 3 copper concentrations (head line not shown), biocide concentration 1 of 4, E. coli): 0.59; CDI (coefficient of drug interaction) (Copper (mM), 2nd of 3 copper concentrations (head line not shown), biocide concentration 2 of 4, E. coli): 0.58; CDI (coefficient of drug interaction) (Copper (mM), 3rd of 3 copper concentrations (head line not shown), biocide concentration 1 of 4, E. coli): 0.41; CDI (coefficient of drug interaction) (Copper (mM), 3rd of 3 copper concentrations (head line not shown), biocide concentration 2 of 4, E. coli): 0.42; CDI (coefficient of drug interaction) (Gold section of Table 5, first of three gold concentrations (μM, value not given), biocide concentration 1 of 4): 1.07; CDI (coefficient of drug interaction) (Gold section of Table 5, first of three gold concentrations (μM, value not given), biocide concentration 2 of 4): 0.96; CDI (coefficient of drug interaction) [21]: 0.93; CDI (coefficient of drug interaction) [22]: 0.74; CDI (coefficient of drug interaction) (Gold section of Table 5, second of three gold concentrations (μM, value not given), biocide concentration 1 of 4): 1.03; CDI (coefficient of drug interaction) (Gold section of Table 5, second of three gold concentrations (μM, value not given), biocide concentration 2 of 4): 1.05; CDI (coefficient of drug interaction) [23]: 1.11; CDI (coefficient of drug interaction) [24]: 0.85; CDI (coefficient of drug interaction) (Gold section of Table 5, third of three gold concentrations (μM, value not given), biocide concentration 1 of 4): 1.07; CDI (coefficient of drug interaction) (Gold section of Table 5, third of three gold concentrations (μM, value not given), biocide concentration 2 of 4): 1.16; CDI (coefficient of drug interaction) [25]: 1.21; CDI (coefficient of drug interaction) [26]: 2.21; CDI (Silver 0.5 μM, biocide concentration 1 of 4): 0.91; CDI (Silver 1.0 μM, biocide concentration 1 of 4): 1.03
c1ccc(-c2nn(-c3ccccc3)[n+](-c3cccc4ccccc34)n2)cc1 [Tetrazolium violet]	Tox	Tox	Tox	Tox	Tox	Tox	Tox	Tox	Tox	Tox	Tox	Tox		Tox	Tox		Tox	Tox	Tox	Tox	
CCCCC(CC)CNC(=N)NC(=N)NCCCCCCNC(=N)NC(=N)NCC(CC)CCCC (centres unmarked) [alexidine]																					CDI (coefficient of drug interaction), copper mixed with biocide (1st of 3 copper concentrations (value not shown), 3rd of four biocide concentrations): Tox; CDI (coefficient of drug interaction), copper mixed with biocide (1st of 3 copper concentrations (value not shown), 4th of four biocide concentrations): Tox; CDI (coefficient of drug interaction), copper mixed with biocide (2nd of 3 copper concentrations (value not shown), 3rd of four biocide concentrations): Tox; CDI (coefficient of drug interaction), copper mixed with biocide (2nd of 3 copper concentrations (value not shown), 4th of four biocide concentrations): Tox; CDI (coefficient of drug interaction), copper mixed with biocide (3rd of 3 copper concentrations (value not shown), 3rd of four biocide concentrations): Tox; CDI (coefficient of drug interaction), copper mixed with biocide (3rd of 3 copper concentrations (value not shown), 4th of four biocide concentrations): Tox; CDI (coefficient of drug interaction) [21]: Tox; CDI (coefficient of drug interaction) [22]: Tox; CDI (coefficient of drug interaction) [23]: Tox; CDI (coefficient of drug interaction) [24]: Tox; CDI (coefficient of drug interaction) [25]: Tox; CDI (coefficient of drug interaction) [26]: Tox; CDI (coefficient of drug interaction), silver + biocide (Silver 0.5 μM, 3rd of four biocide concentrations, E. coli): Tox; CDI (coefficient of drug interaction), silver + biocide (Silver 0.5 μM, 4th of four biocide concentrations, E. coli): Tox; CDI (coefficient of drug interaction), silver + biocide (Silver 1.0 μM, 3rd of four biocide concentrations, E. coli): Tox; CDI (coefficient of drug interaction), silver + biocide (Silver 1.0 μM, 4th of four biocide concentrations, E. coli): Tox; CDI (coefficient of drug interaction), silver + biocide (Silver 5.0 μM, 3rd of four biocide concentrations, E. coli): Tox; CDI (coefficient of drug interaction), silver + biocide (Silver 5.0 μM, 4th of four biocide concentrations, E. coli): Tox
NCC[C@H](O)C(=O)N[C@@H]1C[C@H](N)[C@@H](O[C@H]2O[C@H](CN)[C@@H](O)[C@H](O)[C@H]2O)[C@H](O)[C@H]1O[C@H]1O[C@H](CO)[C@@H](O)[C@H](N)[C@H]1O [amikacin]																					cell toxicity / growth curves with and without silver: enhanced cell toxicity
